Assay results: publication PMC8752738, “A propolis-derived small molecule ameliorates metabolic syndrome in obese mice by targeting the CREB/CRTC2 transcriptional complex” (Nature Communications, 2022)
Where “and” joins values, the source holds several entries; their conditions need not be identical. Identical values can stand only once.

Experiments:
CREB-CRTC2 interaction = target: T1, CREB-CRTC2 interaction (Homo sapiens, UniProt P16220); assay: CREB–CRTC2 mammalian two-hybrid assay (GAL4-Luc reporter); assay type: cell-based; conditions: for Relative Gal4-LUC activity, single replicates: Figure 1f, CREB-CRTC2 two-hybrid assay, DMSO control about 100; for reporter activity of CREB–CRTC2 two-hybrid assay: HEK293T, isolated compound 25 μM
T1 construct: expressed in transfected cells; host or cells: HEK293T

tissue mRNA levels = assay: Quantitative PCR of tissue gene expression in treated mice; assay type: in vivo, mouse; conditions: for Mean Diff. (Veh. vs. treated; head of the quantity not shown, section just before Figure 7h): Met 200mg/kg or APC-20; for Lxra mRNA level: Figure 7g right, Met 200mg/kg, single animals
Description: Total RNA from cells and tissues was extracted by Trizol (Invitrogen) and reverse-transcribed into cDNA using the prime script RT reagent kit with gDNA eraser (Takara). The mRNA levels were determined using the SYBR-green PCR kit (Takara) with ABIPRISM 7900HT Sequence detector (ABI) according to the manufacturer’s protocol. The quantitative qPCR primers used in this work are listed in Supplementary Table 1. Ribosomal L32 mRNA levels were used as an internal control.

[1] = Cholesterol, TG, NEFA and glycerol in serum and liver; assay type: in vivo, mouse; parameters: liver NEFA, Mean 2 (group mean) / Plasma VLDL cholesterol in db/db mice (VLDL-C) / Plasma VLDL cholesterol in db/db mice, group mean / TC in liver_CT2KO (total cholesterol in the liver of CRTC2-KO) / TC in liver_WT (total cholesterol in the liver) / TC in liver_WT, mean / TC in liver_WT, Mean Diff. VEH vs. drug / TC in liver_CRTC2KO, mean / TC in liver_CRTC2KO, Mean Diff. VEH vs. drug: unit not given here; conditions: for Plasma total cholesterol, Mean 1 (drug group): N 6
Description: Serum total cholesterol (TC), LDL cholesterol (LDL-C), and HDL cholesterol (HDL-C) levels were detected using commercial kits (Beihua, China), and serum VLDL protein was determined by ELISA (Jiancheng, China).
The plasma TG and NEFA levels were determined using corresponding kits from Beihua (China) and WAKO (Japan), respectively. The TG levels of liver and WAT were tested by TG kit (Applygene, China). The NEFA in the liver and WAT were extracted by chloroform–methanol and then subjected to NEFA assay (WAKO).

AMPK = assay: Phospho-AMPK immunoblot in primary hepatocytes; assay type: cell-based, mouse; conditions: for relative p-AMPK protein, mean: N=3 (0 μM = 1); for relative p-AMPK protein: Supp. fig.3e, individual replicates
Description: (§1) Immunoblotting and immunoprecipitation assays were performed as previously described, with antibodies recognizing CREB, Ser133-P-CREB, AMPK, P-AMPK, AKT, P-AKT (Cell Signaling), PGC-1α (Merck), CRTC2 (Calbiochem), PCK1 (Santa Cruz), SREBP1 (Santa Cruz), SREBP2 (BD), HA (Convance), LXRα (Santa Cruz), FLAG (Sigma), GST (Covance), HIS (Abmart), GAPDH (AOGMA), α-TUBULIN (Abmart), β-ACTIN (Abmart), and other antibodies (Supplementary Table 3). For immunostaining assays, primary cultured hepatocytes seeded on coverslips were fixed with 4% paraformaldehyde for 20 min, permeabilized with 0.3% Triton X-100 in PBS, and then blocked by 5% normal goat serum and 0.3% Triton X-100 in PBS, followed by incubation with anti-CREB (1:1000), anti-P-CREB (1:1000), or anti-HA (1:3000) antibodies for 1 h at 4 °C. Slides were then washed, and after washing, slides were incubated with fluorochrome-conjugated secondary antibodies (Invitrogen). Slides were then washed and mounted with Vectashield mounting media containing 4, 6-diamidino-2-phenylindole (DAPI).
1 Supplementary Figure 3. APC inhibits gluconeogenesis independent of CREB-phosphorylation,
2 cell toxin or AMPK activation. […]
20 e) Phosphate-AMPK level in primary hepatocytes incubated with APC or metformin (MET) at
21 indicated concentrations (0–200 μM) for 30 minutes (top). Relative P-AMPK normalized by AMPK is […]

tissue protein levels = assay: Immunoblotting of tissue proteins in treated mice; assay type: in vivo, mouse; conditions: for Relative LXRa/ACTIN, Mean Diff. (VEH vs. treated) / Relative LXRa/ACTIN, Mean 2 (group mean) / Relative LXRa/ACTIN: Figure 7h; for Relative LXRa/ACTIN, Mean 2 (group mean): N2 = 4; for Relative LXRa/ACTIN: single replicates
Description: as §1

[2] = 200 μM (first of two lines printed 200)
[3] = 200 μM (second of two lines printed 200)
[4] = liver, CRTC2KO mice, drug minus VEH
[5] = liver, CRTC2KO mice, group mean, N=4
[6] = liver, WT mice, group mean, N=4

T1 sequence (P16220 whole entry, the tested form may be a part): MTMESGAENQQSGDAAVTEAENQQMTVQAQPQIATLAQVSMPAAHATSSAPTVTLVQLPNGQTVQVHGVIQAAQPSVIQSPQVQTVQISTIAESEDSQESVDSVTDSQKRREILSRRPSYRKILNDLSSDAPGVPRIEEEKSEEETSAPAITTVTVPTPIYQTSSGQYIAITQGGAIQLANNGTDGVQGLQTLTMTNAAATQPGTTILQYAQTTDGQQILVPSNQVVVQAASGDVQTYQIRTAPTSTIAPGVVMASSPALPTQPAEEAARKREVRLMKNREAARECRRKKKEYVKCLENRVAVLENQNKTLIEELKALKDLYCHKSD

In the case of O=C(/C=C/c1ccc(O)cc1)OCc1ccccc1 [P5, (E)-p-coumaric acid benzyl ester], the “Relative Gal4-LUC activity, single replicates” value (“Relative Gal4-LUC activity” for short) (CREB-CRTC2 interaction) is reported as 49.3178 and 78.5049 and 35.7022 and the “reporter activity of CREB–CRTC2 two-hybrid assay” value (CREB-CRTC2 interaction) is reported as “significantly inhibited”.

In the case of O=c1c(O)c(-c2ccc(O)cc2)oc2cc(O)cc(O)c12 [P12, kaempferol], the “Relative Gal4-LUC activity” value (CREB-CRTC2 interaction) is reported as 73.7017 and 114.823 and 172.832.

In the case of CCOC(=O)/C=C/c1ccc(O)c(O)c1 [P10, (E)-caffeic acid ethyl ester], the “Relative Gal4-LUC activity” value (CREB-CRTC2 interaction) is reported as 123.291 and 121.37 and 118.215.

In the case of O=C(O)/C=C/c1ccc(O)cc1 [P1, (E)-p-coumaric acid], the “Relative Gal4-LUC activity” value (CREB-CRTC2 interaction) is reported as 70.496 and 71.1658 and 69.3726 and the “reporter activity of CREB–CRTC2 two-hybrid assay” value (CREB-CRTC2 interaction) is reported as “significantly inhibited”.

In the case of O=C(O)/C=C/c1ccc(O)c(O)c1 [P9, (E)-caffeic acid], the “Relative Gal4-LUC activity” value (CREB-CRTC2 interaction) is reported as 57.5791 and 77.7251 and 73.1602.

In the case of COc1ccc(C2Oc3cc(O)cc(O)c3C(=O)C2O)cc1 (stereo not drawn) [P21, dihydrokaempferide], the “Relative Gal4-LUC activity” value (CREB-CRTC2 interaction) is reported as 44.892 and 54.8815 and 50.4357.

For CN(C)C(=N)NC(=N)N [Met], the “Mean Diff. (Veh. vs. treated; head of the quantity not shown, section just before Figure 7h)” value (tissue mRNA levels; CRTC2KO mice) was -0.1815, the “Lxra mRNA level” value (tissue mRNA levels; Crtc2KO mice) was 0.8758 and 0.8882 and 0.7033 and 0.8771 and 1.013 and the “Lxra mRNA level” value (tissue mRNA levels; WT mice) was 1.062 and 1.197 and 0.4513 and 1.258 and 0.814. For the same compound, the “Mean Diff. (Veh. vs. treated; head of the quantity not shown, section just before Figure 7h)” value (tissue mRNA levels; WT mice) was 0.07313, the “TC in liver_CT2KO (total cholesterol in the liver of CRTC2-KO)” value ([1]; liver, CRTC2-KO mice, individual animals, Supp.fig.5d) was 69.3199 and 58.5752 and 53.7207 and 41.7006 and 49.9498 and 60.0658 and the “TC in liver_WT (total cholesterol in the liver)” value ([1]; liver, WT mice, individual animals, Supp.fig.5d) was 51.5785 and 54.6034 and 57.0386 and 53.1363 and 64.5936 and 53.9126.

For CN(C)C(=N)NC(=N)N [MET], the “relative p-AMPK protein, mean” value (AMPK; 5 μM) was 1.096, the “relative p-AMPK protein, mean” value (AMPK; 10 μM) was 1.224 and the “relative p-AMPK protein, mean” value (AMPK; 100 μM) was 1.394. For the same compound, the “relative p-AMPK protein, mean” value (AMPK; [2]) was 1.978, the “relative p-AMPK protein, mean” value (AMPK; [3]) was 2.005 and the “relative p-AMPK protein” value (AMPK; 5 μM) was 1.169 (2×) and 0.9483. For the same compound, the “relative p-AMPK protein” value (AMPK; 10 μM) was 1.256 and 1.249 and 1.166, the “relative p-AMPK protein” value (AMPK; 100 μM) was 1.432 and 1.326 and 1.423 and the “relative p-AMPK protein” value (AMPK; [2]) was 2.049 and 1.941 and 1.943. The “relative p-AMPK protein” value (AMPK; [3]) was 1.966 and 1.951 and 2.098, the “relative p-AMPK protein, column mean” value (AMPK; mean over all concentrations, 0 μM included) was 1.449 and the “Relative LXRa/ACTIN, Mean Diff. (VEH vs. treated)” value (tissue protein levels; CRTC2KO) was 0.07206. The “Relative LXRa/ACTIN, Mean 2 (group mean)” value (tissue protein levels; CRTC2KO) was 0.7321, the “Relative LXRa/ACTIN” value (tissue protein levels; CT2KO) was 0.7043 and 0.6782 and 0.684 and 0.8619 and the “Relative LXRa/ACTIN, Mean Diff. (VEH vs. treated)” value (tissue protein levels; WT) was 0.1998. For the same compound, the “Relative LXRa/ACTIN, Mean 2 (group mean)” value (tissue protein levels; WT) was 0.6958, the “Relative LXRa/ACTIN” value (tissue protein levels; WT) was 0.7209 and 0.7206 and 0.6711 and 0.6705 and the “SREBP1/ACT IN CT2KO, Mean Diff. vs. VEH” value (tissue protein levels; [4]) was -0.1882. For the same compound, the “SREBP2/ACT IN CT2KO, Mean Diff. vs. VEH” value (tissue protein levels; [4]) was -0.07501, the “SREBP1/ACT IN CT2KO, mean” value (tissue protein levels; [5]) was 0.4991 and the “SREBP2/ACT IN CT2KO, mean” value (tissue protein levels; [5]) was 0.6794. For the same compound, the “SREBP1/ACT IN CT2KO (related SREBP1 protein levels in CRTC2KO liver)” value (tissue protein levels; liver, CRTC2KO mice, individual replicates, Supp.fig.5a left) was 0.5276 and 0.4764 and 0.5154 and 0.4771, the “SREBP2/ACT IN CT2KO (related SREBP2 protein levels in CRTC2KO liver)” value (tissue protein levels; liver, CRTC2KO mice, individual replicates, Supp.fig.5a right) was 0.7097 and 0.717 and 0.6322 and 0.6586 and the “SREBP1/ACT IN WT, Mean Diff. vs. VEH” value (tissue protein levels; liver, WT mice, drug minus VEH) was -0.1949. For the same compound, the “SREBP2/ACT IN WT, Mean Diff. vs. VEH” value (tissue protein levels; liver, WT mice, drug minus VEH) was -0.2245, the “SREBP1/ACT IN WT, mean” value (tissue protein levels; [6]) was 0.7683 and the “SREBP2/ACT IN WT, mean” value (tissue protein levels; [6]) was 0.8001. For the same compound, the “SREBP1/ACT IN WT (related SREBP1 protein levels in liver)” value (tissue protein levels; liver, WT mice, individual replicates, Supp.fig.5a left) was 0.8628 and 0.72 and 0.7576 and 0.7329, the “SREBP2/ACT IN WT (related SREBP2 protein levels in liver)” value (tissue protein levels; liver, WT mice, individual replicates, Supp.fig.5a right) was 0.85 and 0.793 and 0.7497 and 0.8079 and the “Plasma total cholesterol, Mean Diff. vs. VEH” value ([1]; Figure 6h, CRTC2KO mice) was 28.04 mg/dL. The “Plasma total cholesterol, Mean 1 (drug group)” value ([1]; Figure 6h, CRTC2KO mice, group mean) was 246.8 mg/dL, the “TC in plasma_CRTC2KO (plasma total cholesterol)” value ([1]; Figure 6h, CRTC2KO mice, individual mice) was 232.014 mg/dL and 251.349 mg/dL and 216.160 mg/dL and 260.242 mg/dL and 252.895 mg/dL and 268.363 mg/dL and the “Plasma total cholesterol, Mean Diff. vs. VEH” value ([1]; Figure 6h, WT mice) was -63.12 mg/dL. The “Plasma total cholesterol, Mean 1 (drug group)” value ([1]; Figure 6h, WT mice, group mean) was 215.4 mg/dL, the “TC in plasma_WT (plasma total cholesterol)” value ([1]; Figure 6h, WT mice, individual mice) was 184.451 mg/dL and 247.868 mg/dL and 232.401 mg/dL and 156.610 mg/dL and 233.948 mg/dL and 237.041 mg/dL and the “TC in liver_CRTC2KO, Mean Diff. VEH vs. drug” value ([1]; liver, CRTC2-KO mice, VEH minus drug) was -4.203. For the same compound, the “TG in liver_CT2KO, Mean Diff. vs. VEH” value ([1]; liver, CRTC2-KO mice, drug minus VEH) was 5.139 mg/g protein, the “TC in liver_CRTC2KO, mean” value ([1]; liver, CRTC2-KO mice, group mean (Mean 2), N=6) was 55.56 and the “TG in liver_CT2KO, mean” value ([1]; liver, CRTC2-KO mice, group mean, N=6) was 20.79 mg/g protein. The “TG in liver_CT2KO” value ([1]; liver, CRTC2-KO mice, individual animals, Supp.fig.5c) was 21.7349 mg/g protein and 16.8626 mg/g protein and 22.9286 mg/g protein and 13.5919 mg/g protein and 26.3275 mg/g protein and 23.2939 mg/g protein, the “TC in liver_WT, Mean Diff. VEH vs. drug” value ([1]; liver, WT mice, VEH minus drug) was 4.549 and the “TG in liver_WT, Mean Diff. vs. VEH” value ([1]; liver, WT mice, drug minus VEH) was -8.336 mg/g protein. The “TC in liver_WT, mean” value ([1]; liver, WT mice, group mean (Mean 2), N=6) was 55.81, the “TG in liver_WT, mean” value ([1]; liver, WT mice, group mean, N=6) was 11.62 mg/g protein and the “TG in liver_WT” value ([1]; liver, WT mice, individual animals, Supp.fig.5c) was 22.699 mg/g protein and 6.6923 mg/g protein and 14.0154 mg/g protein and 7.7587 mg/g protein and 8.152 mg/g protein and 10.4144 mg/g protein.

With CC1(C)C=Cc2cc(C=CC(=O)O)ccc2O1 [P11, 2,2-dimethylchromene-6-propenoic acid] the “Relative Gal4-LUC activity” value (CREB-CRTC2 interaction) was 49.0084 and 29.9945 and 36.8575.
